Laboratory results published in patent US5160526A, “Alkene stabilizers for 3-isothiazolone compounds” (priority 1991, dated 1992).
Where two headings read alike, the source gives them in different places.

Key:
[1] = Stabilization of 5-Chloro and 2-Methyl mixture by norbornene in 2-propanol, 55° C oven; assay type: physicochemical; conditions: 2-propanol, 55° C
Description: This solution was distributed into 6 vials and varying amounts of norbornene added.

[2] = for 2-Methyl (%) / 5-Chloro (%): 2-propanol + 2% water, 55° C
Protocol: A solution of 5-chloro-2methyl-3-isothiazolone ("5-Chloro") and 2-methyl-3-isothiazolone ("2-Methyl") (3.11 g) was prepared in 2-propanol (12.1 g). This solution was distributed in 6 vials. Water (2%) and varying amounts of norbornene were then added. These were then put in a 55° C. oven and analyzed periodically.

[3] = Stabilization of 5-Chloro and 2-Methyl mixture by norbornene in dipropylene glycol containing 0.5% water, 55° C oven; assay type: physicochemical; conditions: DPG (0.5% water)
Protocol: To 19.9 g of dipropylene glycol was added 0.1 g of water. […] This solution was distributed into 6 vials and varying amounts of norbornene were added.

[4] = assay type: physicochemical; conditions: for 2-Methyl (%) / 5-Chloro (%): DPG, 55° C
Protocol: This solution was distributed into 6 vials (3 g each) and varying amounts of cyclohexene were added. The vials were then heated at 55° C. and analyzed periodically.

[5] = assay type: physicochemical; conditions: for 2-Methyl (%) / 5-Chloro (%): 2-propanol, 55° C
Protocol: Varying amounts of DHP were added and the vials put in a 55° C. oven. Active ingredient analysis was done periodically.

In the case of `Cn1sccc1=O` [2-methyl-3-isothiazolone], the “% Remaining After X Days” value ([1]; 0% norbornene, 0 days) is reported as 4.9%, the “% Remaining After X Days” value ([1]; 0% norbornene, 2 days) is reported as 0.4% and the “% Remaining After X Days” value ([1]; 0% norbornene, 30 days) is reported as 0.7%. For the same compound, the “stabilization with norbornene (in words)” value [1] was “completely stabilized”, the “% Remaining After X Days” value ([1]; 3% norbornene, 0 days) was 4.7% and the “% Remaining After X Days” value ([1]; 3% norbornene, 2 days) was 4.4%. For the same compound, the “% Remaining After X Days” value ([1]; 3% norbornene, 30 days) was 3.9%, the “% Remaining After X Days” value ([1]; 6.3% norbornene, 0 days) was 4.5% and the “% Remaining After X Days” value ([1]; 6.3% norbornene, 2 days) was 4.3%. The “% Remaining After X Days” value ([1]; 6.3% norbornene, 30 days) was 4.0%, the “% Remaining After X Days” value ([1]; 11.8% norbornene, 0 days) was 4.2% and the “% Remaining After X Days” value ([1]; 11.8% norbornene, 2 days) was 4.0%. For the same compound, the “% Remaining After X Days” value ([1]; 11.8% norbornene, 30 days) was 3.9%, the “% Remaining After X Days” value ([1]; 16.7% norbornene, 0 days) was 4.0% and the “% Remaining After X Days” value ([1]; 16.7% norbornene, 2 days) was 3.9%. The “% Remaining After X Days” value ([1]; 16.7% norbornene, 30 days) was 3.7%, the “% Remaining After X Days” value ([1]; 21.0% norbornene, 0 days) was 3.9% and the “% Remaining After X Days” value ([1]; 21.0% norbornene, 2 days) was 3.8%. For the same compound, the “% Remaining After X Days” value ([1]; 21.0% norbornene, 30 days) was 3.7%, the “2-Methyl (%) / 5-Chloro (%)” value ([2]; 0% norbornene, 0 days) was 1.7% and the “2-Methyl (%) / 5-Chloro (%)” value ([2]; 0% norbornene, 7 days) was 0.22%. For the same compound, the “2-Methyl (%) / 5-Chloro (%)” value ([2]; 1.2% norbornene, 0 days) was 2.3%, the “2-Methyl (%) / 5-Chloro (%)” value ([2]; 1.2% norbornene, 7 days) was 0.14% and the “2-Methyl (%) / 5-Chloro (%)” value ([2]; 2.3% norbornene, 0 days) was 2.3%. The “2-Methyl (%) / 5-Chloro (%)” value ([2]; 2.3% norbornene, 7 days) was 0.08%, the “2-Methyl (%) / 5-Chloro (%)” value ([2]; 4.2% norbornene, 0 days) was 2.2% and the “2-Methyl (%) / 5-Chloro (%)” value ([2]; 4.2% norbornene, 7 days) was 0.10%. The “2-Methyl (%) / 5-Chloro (%)” value ([2]; 8.1% norbornene, 0 days) was 2.2%, the “2-Methyl (%) / 5-Chloro (%)” value ([2]; 8.1% norbornene, 7 days) was 0.10% and the “2-Methyl (%) / 5-Chloro (%)” value ([2]; 14.1% norbornene, 0 days) was 2.0%. The “2-Methyl (%) / 5-Chloro (%)” value ([2]; 14.1% norbornene, 7 days) was 0.97%, the “2-Methyl (%) / 5-Chloro (%)” value ([2]; 14.1% norbornene, 21 days) was 0.1% and the “2-Methyl (%) / 5-Chloro (%)” value ([3]; 0% norbornene, 0 days) was 4.5%. For the same compound, the “2-Methyl (%) / 5-Chloro (%)” value ([3]; 0% norbornene, 14 days) was 0.6%, the “2-Methyl (%) / 5-Chloro (%)” value ([3]; 1.6% norbornene, 0 days) was 4.4% and the “2-Methyl (%) / 5-Chloro (%)” value ([3]; 1.6% norbornene, 14 days) was 0.18%. The “2-Methyl (%) / 5-Chloro (%)” value ([3]; 3.2% norbornene, 0 days) was 4.3%, the “2-Methyl (%) / 5-Chloro (%)” value ([3]; 3.2% norbornene, 14 days) was 3.3% and the “2-Methyl (%) / 5-Chloro (%)” value ([3]; 3.2% norbornene, 30 days) was 0.6%. For the same compound, the “2-Methyl (%) / 5-Chloro (%)” value ([3]; 6.5% norbornene, 0 days) was 4.2%, the “2-Methyl (%) / 5-Chloro (%)” value ([3]; 6.5% norbornene, 14 days) was 3.7% and the “2-Methyl (%) / 5-Chloro (%)” value ([3]; 6.5% norbornene, 30 days) was 2.7%. The “2-Methyl (%) / 5-Chloro (%)” value ([3]; 9.0% norbornene, 0 days) was 4.1%, the “2-Methyl (%) / 5-Chloro (%)” value ([3]; 9.0% norbornene, 14 days) was 3.7% and the “2-Methyl (%) / 5-Chloro (%)” value ([3]; 9.0% norbornene, 30 days) was 3.3%. The “2-Methyl (%) / 5-Chloro (%)” value ([3]; 14.3% norbornene, 0 days) was 4.4%, the “2-Methyl (%) / 5-Chloro (%)” value ([3]; 14.3% norbornene, 14 days) was 3.6% and the “2-Methyl (%) / 5-Chloro (%)” value ([3]; 14.3% norbornene, 30 days) was 3.3%. The “2-Methyl (%) / 5-Chloro (%)” value ([4]; 0% cyclohexene, 0 days) was 5.0%, the “2-Methyl (%) / 5-Chloro (%)” value ([4]; 0% cyclohexene, 13 days) was 0.49% and the “2-Methyl (%) / 5-Chloro (%)” value ([4]; 3.2% cyclohexene, 0 days) was 4.7%. For the same compound, the “2-Methyl (%) / 5-Chloro (%)” value ([4]; 3.2% cyclohexene, 13 days) was 0.35%, the “2-Methyl (%) / 5-Chloro (%)” value ([4]; 6.8% cyclohexene, 0 days) was 4.6% and the “2-Methyl (%) / 5-Chloro (%)” value ([4]; 6.8% cyclohexene, 13 days) was 0.23%. The “2-Methyl (%) / 5-Chloro (%)” value ([4]; 9.1% cyclohexene, 0 days) was 4.5%, the “2-Methyl (%) / 5-Chloro (%)” value ([4]; 9.1% cyclohexene, 13 days) was 0.95% and the “2-Methyl (%) / 5-Chloro (%)” value ([4]; 9.1% cyclohexene, 30 days) was 0.66%. For the same compound, the “2-Methyl (%) / 5-Chloro (%)” value ([4]; 11.8% cyclohexene, 0 days) was 4.4%, the “2-Methyl (%) / 5-Chloro (%)” value ([4]; 11.8% cyclohexene, 13 days) was 0.59% and the “2-Methyl (%) / 5-Chloro (%)” value ([4]; 11.8% cyclohexene, 30 days) was 0.62%. The “2-Methyl (%) / 5-Chloro (%)” value ([4]; 16.7% cyclohexene, 0 days) was 4.3%, the “2-Methyl (%) / 5-Chloro (%)” value ([4]; 16.7% cyclohexene, 13 days) was 2.6% and the “2-Methyl (%) / 5-Chloro (%)” value ([4]; 16.7% cyclohexene, 30 days) was 0.46%. For the same compound, the “2-Methyl (%) / 5-Chloro (%)” value ([5]; 0% DHP, 0 days) was 5.3%, the “2-Methyl (%) / 5-Chloro (%)” value ([5]; 0% DHP, 12 days) was 0.4% and the “2-Methyl (%) / 5-Chloro (%)” value ([5]; 3.5% DHP, 0 days) was 5.1%. For the same compound, the “2-Methyl (%) / 5-Chloro (%)” value ([5]; 3.5% DHP, 12 days) was 0.7%, the “2-Methyl (%) / 5-Chloro (%)” value ([5]; 6.3% DHP, 0 days) was 5.0% and the “2-Methyl (%) / 5-Chloro (%)” value ([5]; 6.3% DHP, 12 days) was 0.6%. For the same compound, the “2-Methyl (%) / 5-Chloro (%)” value ([5]; 11.8% DHP, 0 days) was 4.2%, the “2-Methyl (%) / 5-Chloro (%)” value ([5]; 11.8% DHP, 12 days) was 0.7% and the “2-Methyl (%) / 5-Chloro (%)” value ([5]; 16.7% DHP, 0 days) was 4.4%. For the same compound, the “2-Methyl (%) / 5-Chloro (%)” value ([5]; 16.7% DHP, 12 days) was 0.7%, the “2-Methyl (%) / 5-Chloro (%)” value ([5]; 21.1% DHP, 0 days) was 4.2% and the “2-Methyl (%) / 5-Chloro (%)” value ([5]; 21.1% DHP, 12 days) was 0.6%.
For `C1=COCCC1` [DHP, 3,4-Dihydro-2H-pyran], the “stability imparted to isothiazolones (in words)” value [5] was “imparts no stability”.
For `C1=CCCCC1` [cyclohexene], the “stabilizer function (in words)” value [4] was “functions as a stabilizer”.
With `C1=CC2CCC1C2` [norbornene] the “stability realized (in words)” value [2] was “Some stability is realized” and the “stabilization properties in presence of water (in words)” value [2] was “overwhelms the stabilization properties”.
